Results on two compounds are retold here after patent US20040019018A1, “Rigid pyrrolidone modulators of pkc” (priority 2003, published 2004).

The structures appear in SMILES notation. A value given as a limit tells only on which side of the number the result lay.

One test addresses whole brain PKC. Briefly: [3H]PDBu displacement from unresolved mixture of PKC isozymes from whole brain extracts. It counts as binding. To be noted: [3H]PDBu competition. The procedure: The ability of representative compounds of the invention to bind specific isozymes of PKC was determined using an assay (Example 13) in which displacement of [20-^3H]phorbol -12,13-dibutyrate ([^3H]PDBu) from either recombinant PKC isozymes prepared in a Baculovirus system, or unresolved mixture of isozymes of PKC isolated from whole brain extracts, was used. These procedures are described below. As described in detail below, preferred compounds for neurological effects are those in which affinity for α, β and γ isozymes is the greatest (i.e. those having the lowest Ki) relative to other isozymes as such as the δ- and ε-isozymes shown in Table 1. […]
Analysis of [20-^3H]phorbol 12,13-dibutyrate binding to PKC. […] Phosphatidylserine and bovine […] were obtained from Sigma Chemical Co. Binding was determined in an incubation volume of 250 μl, containing [^3H]PDBu, PKC, 0.05 M Tris-Cl, pH 7.4, 100 μg/ml phosphatidylserine, various concentrations of the ligand being assayed for competition of [^3H]PDBu binding, and bovine […] at 1 mg/ml. […] [^3H]PDBu was used at a concentration twice the Kd previously determined for the specific receptor. […]
Specific binding represents the difference between total binding and the non-specific binding, where the latter value was calculated from the partition coefficient and the measured free [^3H]PDBu concentration in each tube. […]

Test [1] has as its system LNCaP prostate cancer cells. Briefly: Induction of apoptosis in LNCaP prostate cancer cells (DAPI staining). The test is classed as cell-based. The method, then: The capacity of inducing apoptosis by compound (1) was evaluated in a model of LNCaP prostate cancer cells. It is well established that in this model phorbol esters (e.g., PMA) activate PKC to induce apoptosis (reference 13). LNCaP cells were treated with compound (1) for 1 h, and apoptosis was assessed 24 h later.
Control cells or cells infected for 14 h with adenoviruses for LacZ, PKCα, or PKCδ (multiplicity of infection=10 pfu/cell) were treated with different concentrations of compound (1) or PMA for 1 h. Cells were collected 24 h later and stained with DAPI. The incidence of apoptosis in each preparation was analyzed by counting 500 cells and determining the percentage of apoptotic cells. Results are the mean±standard error of three independent experiments.
It is well established that PKCα and PKCδ are the isozymes that mediate phorbol ester-induced apoptosis in LNCaP cells (references 13c-e). A model that has been used to assess isozyme-specificity is the overexpression of specific PKCs by an adenoviral system. Infection of LNCaP cells with adenoviruses for PKCs leads to a high expression of the corresponding PKC isozyme, as determined by Western-blot analysis, kinase activity, or [^3H]PDBu binding (reference 13e).

For a further test, the system named is PKC catalytic subunit. Briefly: Translocation of PKC catalytic subunit to the membrane fraction in human fibroblasts (Western blot). The test is classed as cell-based. Conditions: 15 min treatment, preliminary results. The procedure:
A growing list of evidence implicated that protein kinase C (PKC) activation can increase the rate of the non-amyloidogenic, i.e. α-secretase processing in vitro.
Human fibroblasts were grown to confluence in 100 mm tissue culture dishes. On the day of the experiment, cells were rinsed twice with serum-free Dulbecco's modified Eagle's medium (DMEM) and incubated in the same medium for 2 hours. Cells were treated with the drugs above, or DMSO vehicle as control, for 15 min. The cells were then rinsed twice with ice-cold phosphate buffered saline (PBS), scraped in PBS, and collected by centrifugation. The pellets were suspended in homogenization buffer containing: 20 mM Tris-HCl, pH 7.5, 2 mM EDTA, 2 mM EGTA, 5 mM DTT, 0.32 M sucrose, 2 mM PMSF, […] aprotinin, and 20 µg/ml leupeptin. Homogenates were immersed in liquid nitrogen thawed, and centrifuged at 12,000 g for 20 min, and supernatants were used as the cytosolic fraction (C). The pellets were homogenized in the same buffer containing 1.0% Triton X-100, incubated on ice for 45 min, and centrifuged at 12,000 g for 30 min and the supernatants were used as the membrane fractions (M). After protein determination, equal amounts of proteins (approx. […]) were mixed with electrophoresis buffer, boiled for 5 min, and separated on 8% SDS-PAGE, and electrophoretically transferred to PVDF membranes. […]
Background: Immunoblotting shows a protein as a band on a membrane.

For `CCCCCCCCCCCC(=O)Oc1ccc2c(c1)[C@](C)(C(C)C)[C@H]1C(=O)N[C@H](CO)[C@@H]21` [Compound 2, (3S, 8R, 9S, 10S)-6-dodecanoyloxyl-3-hydroxymethyl-8-isopropyl-8-methyl-3,3a,8,8a-tetrahydro-2H -2-aza-cyclopenta[a]inden-1-one], the Ki at whole brain PKC was > 10 µM.
In the case of `CCCCCCCCC#Cc1ccc2c(c1)C(C)(C(C)C)C1C(=O)NC(CO)C21` [Compound 1, (3S, 8R, 9S, 10S)-6-(dec-1′-ynyl)-3-hydroxymethyl-8-isopropyl-8-methyl-3,3a,8,8a-tetrahydro-2H-2-aza-cyclopenta[a]inden-1-one], on whole brain PKC, the Ki was > 10 µM. Moreover, the “apoptotic effect in LNCaP cells” value in test [1] (1-30 μM, treated 1 h, apoptosis assessed 24 h later, FIG. 6A) was “induces a dose-dependent apoptotic effect”. Further, in test [1] (LNCaP cells infected with LacZ adenovirus), the “apoptotic effect with control adenovirus” value is reported as “did not affect the apoptotic effect”. Besides, in test [1] (LNCaP cells infected with adenoviruses for PKCα or PKCδ), the “apoptotic response with overexpression of PKC isozymes” value is listed as “markedly potentiates the apoptotic response”. In addition, the “translocation of PKC catalytic subunit from the cytosolic to the membrane fractions (activation)” value in the test on PKC catalytic subunit is reported as “able to cause the translocation”.

The term Ki denotes a dissociation constant, usually derived from enzyme kinetics or from competition with a known ligand.
